Assay results reported in ChEMBL document CHEMBL3804811 (J Med Chem, 2016).
Values after ≈ are worked out from the molar mass of the structure shown. Active and inactive are the calls of the source. The rule behind the calls is not given here.

How the values were obtained:
[1] = Solubility of compound at pH 7 buffer; type: physicochemical
[2] = Cmax in Beagle dog at 10 mg/kg, po administered as single dose by LC-MS/MS analysis; type: ADME, organism-based, Canis lupus familiaris; set-up: dose 10 mg/kg, route oral; conditions: in vivo
[3] = Antiproliferative activity against human SUP-M2 cells expressing ALK protein incubated for 72 hrs by cell titer-glo assay; type: functional, cell-based; conditions: SUP-M2, 72 h
[4] = AUC (infinity) in Sprague-Dawley rat at 10 mg/kg, iv administered as single dose by LC-MS/MS analysis; type: ADME, organism-based; set-up: dose 10 mg/kg, time infinity, route intravenous; conditions: in vivo
[5] = Oral bioavailability in Beagle dog at 10 mg/kg administered as single dose by LC-MS/MS analysis; type: ADME, organism-based, Canis lupus familiaris; conditions: in vivo
[6] = system: KM12; test: Antiproliferative activity against human KM12 cells expressing TRKA protein incubated for 72 hrs by cell titer-glo assay; conditions: KM12, 72 h
[7] = system: KARPAS-299; conditions: Homo sapiens
Description: Antitumor activity against human KARPAS299 cells xenografted in SCID mouse assessed as tumor growth inhibition at 30 to 60 mg/kg, po bid administered for 10 days

[8] = target: Vascular endothelial growth factor receptor 3 (Homo sapiens, UniProt P35916); test: Inhibition of VEGFR3 (unknown origin) in presence of gamma33-ATP
[9] = target: Tyrosine-protein kinase JAK2 (Homo sapiens, UniProt O60674); test: Inhibition of JAK2 (unknown origin) in presence of gamma33-ATP
[10] = target: T1, Tyrosine-protein kinase JAK3 (Homo sapiens, UniProt P52333); test: Inhibition of JAK3 (unknown origin) in presence of gamma33-ATP
T1 sequence (P52333 whole entry): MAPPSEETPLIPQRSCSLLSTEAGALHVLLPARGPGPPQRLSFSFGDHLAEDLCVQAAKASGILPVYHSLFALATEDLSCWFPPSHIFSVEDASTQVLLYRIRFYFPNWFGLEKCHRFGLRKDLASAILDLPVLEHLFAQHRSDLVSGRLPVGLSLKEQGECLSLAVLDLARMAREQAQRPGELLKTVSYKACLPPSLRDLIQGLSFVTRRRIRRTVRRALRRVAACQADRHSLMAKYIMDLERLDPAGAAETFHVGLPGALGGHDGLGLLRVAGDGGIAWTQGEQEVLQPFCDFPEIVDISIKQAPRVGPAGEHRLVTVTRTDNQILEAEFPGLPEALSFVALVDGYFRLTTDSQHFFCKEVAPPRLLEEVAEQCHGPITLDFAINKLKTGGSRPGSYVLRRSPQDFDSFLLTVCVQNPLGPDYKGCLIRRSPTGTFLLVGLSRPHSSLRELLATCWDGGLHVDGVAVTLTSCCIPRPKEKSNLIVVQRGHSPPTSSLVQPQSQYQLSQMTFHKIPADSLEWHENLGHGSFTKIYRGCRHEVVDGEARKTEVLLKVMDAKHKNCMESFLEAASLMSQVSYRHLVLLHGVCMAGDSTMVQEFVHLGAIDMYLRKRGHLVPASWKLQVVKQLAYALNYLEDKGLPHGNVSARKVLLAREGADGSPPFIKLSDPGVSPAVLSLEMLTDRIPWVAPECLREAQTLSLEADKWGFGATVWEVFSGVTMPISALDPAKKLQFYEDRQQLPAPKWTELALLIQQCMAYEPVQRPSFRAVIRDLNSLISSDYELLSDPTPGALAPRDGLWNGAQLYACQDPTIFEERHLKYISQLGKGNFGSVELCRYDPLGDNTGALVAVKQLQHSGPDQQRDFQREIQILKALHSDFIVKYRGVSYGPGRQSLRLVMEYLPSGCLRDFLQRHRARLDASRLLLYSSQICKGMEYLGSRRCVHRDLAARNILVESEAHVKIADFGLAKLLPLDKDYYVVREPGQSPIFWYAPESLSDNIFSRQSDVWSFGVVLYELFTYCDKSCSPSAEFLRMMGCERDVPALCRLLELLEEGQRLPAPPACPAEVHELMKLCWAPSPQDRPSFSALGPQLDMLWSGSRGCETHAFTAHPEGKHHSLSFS

[11] = Half life in Sprague-Dawley rat at 10 mg/kg, iv administered as single dose by LC-MS/MS analysis; type: ADME, organism-based; conditions: in vivo
[12] = Half life in Beagle dog at 10 mg/kg, iv administered as single dose by LC-MS/MS analysis; type: ADME, organism-based, Canis lupus familiaris; conditions: in vivo
[13] = Cmax in Beagle dog at 10 mg/kg, iv administered as single dose by LC-MS/MS analysis; type: ADME, organism-based, Canis lupus familiaris; set-up: dose 10 mg/kg, route intravenous; conditions: in vivo
[14] = Oral bioavailability in Harlan nu/nu mouse at 10 mg/kg administered as single dose by LC-MS/MS analysis; type: ADME, organism-based; conditions: in vivo
[15] = Apparent permeability from basolateral to apical side in human Caco2 cells at 2.5 mg/ml after 2 hrs by reversed-phase HPLC method; type: ADME, cell-based; conditions: Caco-2
[16] = Cytotoxicity against mouse IL-3 dependent BA/F3 cells incubated for 72 hrs by cell titer-glo assay; type: cell-based; conditions: BaF3, 72 h
[17] = Oral bioavailability in Sprague-Dawley rat at 10 mg/kg administered as single dose by LC-MS/MS analysis; type: ADME, organism-based; conditions: in vivo
[18] = Cmax in Harlan nu/nu mouse at 10 mg/kg, iv administered as single dose by LC-MS/MS analysis; type: ADME, organism-based; set-up: dose 10 mg/kg, route intravenous; conditions: in vivo
[19] = Half life in Beagle dog at 10 mg/kg, po administered as single dose by LC-MS/MS analysis; type: ADME, organism-based, Canis lupus familiaris; conditions: in vivo
[20] = AUC (infinity) in Sprague-Dawley rat at 10 mg/kg, po administered as single dose by LC-MS/MS analysis; type: ADME, organism-based; set-up: dose 10 mg/kg, time infinity, route oral; conditions: in vivo
[21] = Ratio of drug level in brain to plasma in Harlan nu/nu mouse at 240 mg/kg, po administered per day for 2 weeks measured 6 hrs post last dose by LC-MS/MS analysis; type: ADME, organism-based; conditions: read-out: BPR
[22] = Cmax in Harlan nu/nu mouse at 10 mg/kg, po administered as single dose by LC-MS/MS analysis; type: ADME, organism-based; set-up: dose 10 mg/kg, route oral; conditions: in vivo

Sequence of Tyrosine-protein kinase JAK2 (O60674 whole entry): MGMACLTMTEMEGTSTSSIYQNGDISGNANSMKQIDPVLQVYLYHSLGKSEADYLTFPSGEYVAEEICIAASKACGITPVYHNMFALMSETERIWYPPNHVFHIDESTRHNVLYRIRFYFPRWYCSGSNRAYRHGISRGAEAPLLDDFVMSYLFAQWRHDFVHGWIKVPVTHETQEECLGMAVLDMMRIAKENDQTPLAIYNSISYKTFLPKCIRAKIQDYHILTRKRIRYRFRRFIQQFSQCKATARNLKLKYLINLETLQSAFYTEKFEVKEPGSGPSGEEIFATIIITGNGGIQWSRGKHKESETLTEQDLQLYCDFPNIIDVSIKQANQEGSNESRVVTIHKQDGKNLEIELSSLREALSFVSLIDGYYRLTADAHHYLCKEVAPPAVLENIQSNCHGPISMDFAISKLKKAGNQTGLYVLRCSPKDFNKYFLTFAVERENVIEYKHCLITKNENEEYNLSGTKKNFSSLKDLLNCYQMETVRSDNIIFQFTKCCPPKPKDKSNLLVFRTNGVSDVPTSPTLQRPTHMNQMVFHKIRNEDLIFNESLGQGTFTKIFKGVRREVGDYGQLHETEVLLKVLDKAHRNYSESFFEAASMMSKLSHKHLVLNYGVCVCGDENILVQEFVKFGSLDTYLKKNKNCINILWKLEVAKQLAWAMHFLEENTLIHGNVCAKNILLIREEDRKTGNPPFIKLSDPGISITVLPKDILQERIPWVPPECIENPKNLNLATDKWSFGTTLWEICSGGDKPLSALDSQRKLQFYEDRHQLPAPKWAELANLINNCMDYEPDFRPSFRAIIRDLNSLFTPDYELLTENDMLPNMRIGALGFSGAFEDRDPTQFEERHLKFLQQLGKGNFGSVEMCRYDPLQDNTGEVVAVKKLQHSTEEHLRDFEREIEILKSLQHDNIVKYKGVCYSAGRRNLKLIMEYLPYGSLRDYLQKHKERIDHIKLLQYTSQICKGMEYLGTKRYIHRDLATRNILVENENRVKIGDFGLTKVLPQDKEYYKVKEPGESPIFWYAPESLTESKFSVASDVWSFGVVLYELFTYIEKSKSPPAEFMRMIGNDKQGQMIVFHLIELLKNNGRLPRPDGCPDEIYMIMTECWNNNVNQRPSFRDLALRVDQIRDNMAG
Sequence of Vascular endothelial growth factor receptor 3 (P35916 whole entry): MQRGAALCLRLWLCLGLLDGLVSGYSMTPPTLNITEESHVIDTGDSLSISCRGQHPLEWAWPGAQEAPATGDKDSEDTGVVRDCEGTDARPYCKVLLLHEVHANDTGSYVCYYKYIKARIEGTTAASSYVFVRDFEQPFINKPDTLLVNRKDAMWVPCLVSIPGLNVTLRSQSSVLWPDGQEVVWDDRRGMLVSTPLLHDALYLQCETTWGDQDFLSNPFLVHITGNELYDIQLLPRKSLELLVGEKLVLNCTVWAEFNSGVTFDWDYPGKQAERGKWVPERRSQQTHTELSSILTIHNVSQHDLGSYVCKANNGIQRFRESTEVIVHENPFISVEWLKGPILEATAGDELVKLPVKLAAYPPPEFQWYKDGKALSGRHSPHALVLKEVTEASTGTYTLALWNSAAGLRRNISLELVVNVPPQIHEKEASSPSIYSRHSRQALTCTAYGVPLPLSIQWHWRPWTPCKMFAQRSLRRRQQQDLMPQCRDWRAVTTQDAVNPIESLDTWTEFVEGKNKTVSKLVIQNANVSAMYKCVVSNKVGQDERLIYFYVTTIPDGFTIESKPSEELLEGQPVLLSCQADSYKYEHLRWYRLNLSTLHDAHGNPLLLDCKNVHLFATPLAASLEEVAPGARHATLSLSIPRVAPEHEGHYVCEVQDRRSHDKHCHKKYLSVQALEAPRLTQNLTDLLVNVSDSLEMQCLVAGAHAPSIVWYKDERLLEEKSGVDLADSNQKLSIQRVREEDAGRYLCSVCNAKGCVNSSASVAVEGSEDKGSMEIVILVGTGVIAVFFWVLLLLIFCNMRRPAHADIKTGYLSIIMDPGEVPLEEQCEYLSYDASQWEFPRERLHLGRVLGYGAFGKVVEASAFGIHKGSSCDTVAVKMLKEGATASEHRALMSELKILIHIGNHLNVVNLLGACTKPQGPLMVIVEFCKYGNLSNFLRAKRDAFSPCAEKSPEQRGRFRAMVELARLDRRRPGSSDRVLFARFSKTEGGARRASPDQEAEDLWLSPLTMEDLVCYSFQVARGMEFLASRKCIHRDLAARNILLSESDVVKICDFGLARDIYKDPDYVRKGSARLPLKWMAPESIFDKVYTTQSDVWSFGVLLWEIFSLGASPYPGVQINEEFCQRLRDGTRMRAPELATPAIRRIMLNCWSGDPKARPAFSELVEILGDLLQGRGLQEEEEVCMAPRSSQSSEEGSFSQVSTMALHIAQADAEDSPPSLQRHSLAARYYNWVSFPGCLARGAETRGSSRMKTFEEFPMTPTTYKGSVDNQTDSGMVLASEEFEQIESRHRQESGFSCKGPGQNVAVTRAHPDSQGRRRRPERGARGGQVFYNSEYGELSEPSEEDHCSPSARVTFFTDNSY

CN1CCN(c2ccc(C(=O)Nc3n[nH]c4ccc(Cc5cc(F)cc(F)c5)cc34)c(NC3CCOCC3)c2)CC1 [ENTRECTINIB]
solubility [1]: 20 µM (≈ 11.2 µg/mL)
Cmax [2]: 0.6 µM
IC50 [3]: 41 nM
AUC(0-inf) [4]: 15.1 µM·h
bioavailability [5]: 32%
IC50 [6]: 17 nM
TGI [7]: Active
IC50 [8]: > 1000 nM
IC50 [9]: 40 nM
IC50 [10]: 349 nM
half-life [11]: 3.5 h
half-life [12]: 11.9 h
Cmax [13]: 8.6 µM
bioavailability [14]: 77%
Papp B→A at 2 h, 2.5 mg/ml [15]: 3 ×10⁻⁶ cm/s
IC50 [16]: 2100 nM
bioavailability [17]: 43%
Cmax [18]: 4.9 µM
half-life [19]: 15.2 h
AUC(0-inf) [20]: 5.13 µM·h
Kp at 6 h [21]: 0.43
Cmax [22]: 1.33 µM
